Reference: article PMC11796354, “Autoinducer-2 enhances the defense of Vibrio furnissii against oxidative stress and DNA damage by modulation of c-di-GMP signaling via a two-component system” (mBio, 2025)

Target: AsrK (vfu_B00258)
Assay: ITC in borate-depleted buffer; also inhibits autokinase activity of purified full-length AsrK
Assay type: binding, Vibrio furnissii

## CC(=O)C(=O)[C@@H](O)CO [DPD, 4,5-dihydroxy-2,3-pentanedione]
  Kd: 0.038 ± 0.004 µM
